Reference: patent US9849130B2 (KamTek, Inc., priority 2014, dated 2017)
Values after ≈ are worked out from the molar mass of the structure shown. Values joined by “and” are separate entries in the source; they are usually repeats but may differ in a detail not shown here. Equal values may be shown once. Read-outs that look alike come from different tables or passages of the source.

Legend:
[1] = system: Escherichia coli strains; experiment: MIC by microdilution in Mueller-Hinton broth against Escherichia coli strains; assay type: cell-based; details: for MIC: Escherichia coli, Mueller-Hinton broth, read-out: MIC
[2] = system: Enterococcus faecalis; experiment: MIC by microdilution in Mueller-Hinton broth against Enterococcus faecalis strains; assay type: cell-based; details: Enterococcus faecalis
[3] = system: Enterococci faecium; experiment: MIC by microdilution in Mueller-Hinton broth against Enterococci faecium strains; assay type: cell-based, Enterococcus faecium; details: Enterococcus faecium, Mueller-Hinton broth, read-out: MIC
[4] = system: Staphylococcus aureus strains; experiment: MIC by microdilution in Mueller-Hinton broth against Staphylococcus aureus strains; assay type: cell-based; details: Staphylococcus aureus
[5] = system: Clostridium difficile (CD) strains; experiment: microbe, parasite or virus in culture; assay type: cell-based
[6] = system: Bacteroides Strains; experiment: MIC by microdilution in Brucella broth against Bacteroides strains; assay type: cell-based, Bacteroides spp.
[7] = Escherichia coli strain NR 17626
[8] = Escherichia coli strain NR 17627
[9] = Escherichia coli strain NR 17633
[10] = Escherichia coli strain NR 17647
[11] = Escherichia coli strain NR 17650
[12] = Escherichia coli strain NR 17661
[13] = E. faecalis NR 31884, read-out: MIC
[14] = E. faecalis NR 31885, read-out: MIC
[15] = E. faecalis NR 31886, read-out: MIC
[16] = E. faecalis NR 31887, read-out: MIC
[17] = E. faecalis NR 31888, read-out: MIC
[18] = S. aureus NR 10129, read-out: MIC
[19] = S. aureus NR 10186, read-out: MIC
[20] = S. aureus NR 10187, read-out: MIC
[21] = S. aureus NR 10188, read-out: MIC
[22] = S. aureus NR 10189, read-out: MIC
[23] = S. aureus NR 10191, read-out: MIC
[24] = S. aureus NR 10192, read-out: MIC
[25] = S. aureus NR 10193, read-out: MIC
[26] = S. aureus NR 10194, read-out: MIC
[27] = S. aureus NR 10198, read-out: MIC
[28] = Staphylococcus aureus strain NR 10129, read-out: MIC
[29] = Staphylococcus aureus strain NR 10186, read-out: MIC
[30] = Staphylococcus aureus strain NR 10187, read-out: MIC
[31] = Staphylococcus aureus strain NR 10188, read-out: MIC
[32] = Staphylococcus aureus strain NR 10189, read-out: MIC
[33] = Staphylococcus aureus strain NR 10191, read-out: MIC
[34] = Staphylococcus aureus strain NR 10192, read-out: MIC
[35] = Staphylococcus aureus strain NR 10193, read-out: MIC
[36] = Staphylococcus aureus strain NR 10194, read-out: MIC
[37] = Staphylococcus aureus strain NR 10198, read-out: MIC

NCC[C@H](O)C(=O)N[C@@H]1C[C@H](N)[C@@H](O[C@H]2O[C@H](CN)[C@@H](O)[C@H](O)[C@H]2O)[C@H](O)[C@H]1O[C@H]1O[C@H](CO)[C@@H](O)[C@H](N)[C@H]1O [AMK, amikacin]
MIC ([1]; E. coli NR 6): 4 µg/mL (≈ 6.83 µM) | MIC ([1]; E. coli NR 8): 4 µg/mL (≈ 6.83 µM) | MIC ([1]; E. coli NR 96): 8 µg/mL (≈ 13.7 µM) | MIC ([1]; E. coli NR 104): 2 µg/mL (≈ 3.42 µM) | MIC ([1]; E. coli NR 17626): 16 µg/mL (≈ 27.3 µM) | MIC ([1]; E. coli NR 17627): 8 µg/mL (≈ 13.7 µM) | MIC ([1]; E. coli NR 17633): 8 µg/mL (≈ 13.7 µM) | MIC ([1]; E. coli NR 17647): 2 µg/mL (≈ 3.42 µM) | MIC ([1]; E. coli NR 17650): 8 µg/mL (≈ 13.7 µM) | MIC ([1]; E. coli NR 17661): 2 µg/mL (≈ 3.42 µM) | MIC ([1]; Escherichia coli strain NR 6): 4 µg/mL (≈ 6.83 µM) | MIC ([1]; Escherichia coli strain NR 8): 4 µg/mL (≈ 6.83 µM) | MIC ([1]; Escherichia coli strain NR 96): 8 µg/mL (≈ 13.7 µM) | MIC ([1]; Escherichia coli strain NR 104): 2 µg/mL (≈ 3.42 µM) | MIC [1, 7]: 16 µg/mL (≈ 27.3 µM) | MIC [1, 8]: 8 µg/mL (≈ 13.7 µM) | MIC [1, 9]: 8 µg/mL (≈ 13.7 µM) | MIC [1, 10]: 2 µg/mL (≈ 3.42 µM) | MIC [1, 11]: 8 µg/mL (≈ 13.7 µM) | MIC [1, 12]: 2 µg/mL (≈ 3.42 µM) | MIC [2, 13]: > 32 µg/mL | MIC [2, 14]: > 32 µg/mL | MIC [2, 15]: > 32 µg/mL | MIC [2, 16]: > 32 µg/mL | MIC [2, 17]: > 32 µg/mL | MIC ([3]; E. faecium NR 31903): > 32 µg/mL | MIC ([3]; E. faecium NR 31909): > 32 µg/mL | MIC ([3]; E. faecium NR 31912): > 32 µg/mL | MIC ([3]; E. faecium NR 31915): > 32 µg/mL | MIC ([3]; E. faecium NR 31916): > 32 µg/mL | MIC [4, 18]: 2 µg/mL (≈ 3.42 µM) | MIC [4, 19]: 32 µg/mL (≈ 54.6 µM) | MIC [4, 20]: > 32 µg/mL | MIC [4, 21]: > 32 µg/mL | MIC [4, 22]: 4 µg/mL (≈ 6.83 µM) | MIC [4, 23]: 32 µg/mL (≈ 54.6 µM) | MIC [4, 24]: > 32 µg/mL | MIC [4, 25]: > 32 µg/mL | MIC [4, 26]: 32 µg/mL (≈ 54.6 µM) | MIC [4, 27]: > 32 µg/mL | MIC [4, 28]: 2 µg/mL (≈ 3.42 µM) | MIC [4, 29]: 32 µg/mL (≈ 54.6 µM) | MIC [4, 30]: > 32 µg/mL | MIC [4, 31]: > 32 µg/mL | MIC [4, 32]: 4 µg/mL (≈ 6.83 µM) | MIC [4, 33]: 32 µg/mL (≈ 54.6 µM) | MIC [4, 34]: > 32 µg/mL | MIC [4, 35]: > 32 µg/mL | MIC [4, 36]: 32 µg/mL (≈ 54.6 µM) | MIC [4, 37]: > 32 µg/mL

CC1(C)S[C@@H]2[C@H](NC(=O)[C@H](N)c3ccccc3)C(=O)N2[C@H]1C(=O)O [AMP, ampicillin]
MIC ([1]; E. coli NR 6): 2 µg/mL (≈ 5.72 µM) | MIC ([1]; E. coli NR 8): 4 µg/mL (≈ 11.4 µM) | MIC ([1]; E. coli NR 96): 4 µg/mL (≈ 11.4 µM) | MIC ([1]; E. coli NR 104): 4 µg/mL (≈ 11.4 µM) | MIC ([1]; E. coli NR 17626): 4 µg/mL (≈ 11.4 µM) | MIC ([1]; E. coli NR 17627): 4 µg/mL (≈ 11.4 µM) | MIC ([1]; E. coli NR 17633): 4 µg/mL (≈ 11.4 µM) | MIC ([1]; E. coli NR 17647): 4 µg/mL (≈ 11.4 µM) | MIC ([1]; E. coli NR 17650): 4 µg/mL (≈ 11.4 µM) | MIC ([1]; E. coli NR 17661): > 32 µg/mL | MIC ([1]; Escherichia coli strain NR 6): 2 µg/mL (≈ 5.72 µM) | MIC ([1]; Escherichia coli strain NR 8): 4 µg/mL (≈ 11.4 µM) | MIC ([1]; Escherichia coli strain NR 96): 4 µg/mL (≈ 11.4 µM) | MIC ([1]; Escherichia coli strain NR 104): 4 µg/mL (≈ 11.4 µM) | MIC [1, 7]: 4 µg/mL (≈ 11.4 µM) | MIC [1, 8]: 4 µg/mL (≈ 11.4 µM) | MIC [1, 9]: 4 µg/mL (≈ 11.4 µM) | MIC [1, 10]: 4 µg/mL (≈ 11.4 µM) | MIC [1, 11]: 4 µg/mL (≈ 11.4 µM) | MIC [1, 12]: > 32 µg/mL | MIC [2, 13]: 4 µg/mL (≈ 11.4 µM) | MIC [2, 14]: 4 µg/mL (≈ 11.4 µM) | MIC [2, 15]: 4 µg/mL (≈ 11.4 µM) | MIC [2, 16]: 0.5 µg/mL (≈ 1.43 µM) | MIC [2, 17]: 4 µg/mL (≈ 11.4 µM) | MIC ([3]; E. faecium NR 31903): > 32 µg/mL | MIC ([3]; E. faecium NR 31909): > 32 µg/mL | MIC ([3]; E. faecium NR 31912): > 32 µg/mL | MIC ([3]; E. faecium NR 31915): 2 µg/mL (≈ 5.72 µM) | MIC ([3]; E. faecium NR 31916): > 32 µg/mL | MIC [4, 18]: > 32 µg/mL | MIC [4, 19]: > 32 µg/mL | MIC [4, 20]: 8 µg/mL (≈ 22.9 µM) | MIC [4, 21]: 16 µg/mL (≈ 45.8 µM) | MIC [4, 22]: 32 µg/mL (≈ 91.6 µM) | MIC [4, 23]: > 32 µg/mL | MIC [4, 24]: 32 µg/mL (≈ 91.6 µM) | MIC [4, 25]: > 32 µg/mL | MIC [4, 26]: 2 µg/mL (≈ 5.72 µM) | MIC [4, 27]: > 32 µg/mL | MIC [4, 28]: > 32 µg/mL | MIC [4, 29]: > 32 µg/mL | MIC [4, 30]: 8 µg/mL (≈ 22.9 µM) | MIC [4, 31]: 16 µg/mL (≈ 45.8 µM) | MIC [4, 32]: 32 µg/mL (≈ 91.6 µM) | MIC [4, 33]: > 32 µg/mL | MIC [4, 34]: 32 µg/mL (≈ 91.6 µM) | MIC [4, 35]: > 32 µg/mL | MIC [4, 36]: 2 µg/mL (≈ 5.72 µM) | MIC [4, 37]: > 32 µg/mL

O=C1C(NC2CCCCCCC2)=CC(=O)c2ncccc21 [AZQ, 6-(cyclooctylamino)-5,8-quinolinequinone]
MIC Range [5]: 0.25 to 1 µg/mL | MIC90 ([5]; Clostridioides difficile): 1 µg/mL (≈ 3.52 µM) | activity against E. coli (in words) [1]: no activity | MIC ([1]; E. coli NR 6): > 32 µg/mL | MIC ([1]; E. coli NR 8): > 32 µg/mL | MIC ([1]; E. coli NR 96): > 32 µg/mL | MIC ([1]; E. coli NR 104): > 32 µg/mL | MIC ([1]; E. coli NR 17626): > 32 µg/mL | MIC ([1]; E. coli NR 17627): > 32 µg/mL | MIC ([1]; E. coli NR 17633): > 32 µg/mL | MIC ([1]; E. coli NR 17647): > 32 µg/mL | MIC ([1]; E. coli NR 17650): > 32 µg/mL | MIC ([1]; E. coli NR 17661): > 32 µg/mL | MIC [2, 13]: 32 µg/mL (≈ 113 µM) | MIC [2, 14]: 32 µg/mL (≈ 113 µM) | MIC [2, 15]: 32 µg/mL (≈ 113 µM) | MIC [2, 16]: 16 µg/mL (≈ 56.3 µM) | MIC [2, 17]: 32 µg/mL (≈ 113 µM) | MIC ([3]; E. faecium NR 31903): > 32 µg/mL | MIC ([3]; E. faecium NR 31909): 32 µg/mL (≈ 113 µM) | MIC ([3]; E. faecium NR 31912): 32 µg/mL (≈ 113 µM) | MIC ([3]; E. faecium NR 31915): > 32 µg/mL | MIC ([3]; E. faecium NR 31916): 16 µg/mL (≈ 56.3 µM) | MIC [4, 18]: 32 µg/mL (≈ 113 µM) | MIC [4, 19]: 16 µg/mL (≈ 56.3 µM) | MIC [4, 20]: > 32 µg/mL | MIC [4, 21]: 32 µg/mL (≈ 113 µM) | MIC [4, 22]: 16 µg/mL (≈ 56.3 µM) | MIC [4, 23]: 8 µg/mL (≈ 28.1 µM) | MIC [4, 24]: 32 µg/mL (≈ 113 µM) | MIC [4, 25]: 16 µg/mL (≈ 56.3 µM) | MIC [4, 26]: 16 µg/mL (≈ 56.3 µM) | MIC [4, 27]: 16 µg/mL (≈ 56.3 µM) | MIC ([6]; B. caccae HM728, read-out: MIC): 2 µg/mL (≈ 7.03 µM) | MIC ([6]; B. eggerthii HM210, read-out: MIC): 2 µg/mL (≈ 7.03 µM) | MIC ([6]; B. fragilis HM709, read-out: MIC): 2 µg/mL (≈ 7.03 µM) | MIC ([6]; B. fragilis HM710, read-out: MIC): 2 µg/mL (≈ 7.03 µM) | MIC ([6]; B. fragilis HM714, read-out: MIC): 2 µg/mL (≈ 7.03 µM) | MIC ([6]; B. ovatus HM222, read-out: MIC): 1 µg/mL (≈ 3.52 µM) | MIC ([6]; B. stercoris HM1036, read-out: MIC): 2 µg/mL (≈ 7.03 µM) | MIC ([6]; Bacteroides, B. spp. HM19): 4 µg/mL (≈ 14.1 µM) | MIC ([6]; Bacteroides, B. spp. HM23, read-out: MIC): 2 µg/mL (≈ 7.03 µM) | MIC ([6]; Bacteroides, B. spp. HM27): 1 µg/mL (≈ 3.52 µM) | MIC ([6]; Bacteroides, B. spp. HM58): 4 µg/mL (≈ 14.1 µM)

CC1(C)CC(N=c2cc3n(-c4ccc(Cl)c(Cl)c4)c4ccccc4nc-3cc2Nc2ccc(Cl)c(Cl)c2)CC(C)(C)N1 [B4100]
MIC [5]: 0.25 µg/mL and 0.125 µg/mL
